In patent US4564627A, “Feed composition” (Nihon Nohyaku Co., Ltd., priority 1982, dated 1986):

Columns and labels:
[1] = tested on: broilers; experiment: Abdominal fat deposit of broilers (Test Example 1); type: in vivo, "A A Fuji" broilers (chicken)
Method: (§1) To each group consisting of 30 "A A Fuji" broilers (15 male, 15 female), a commercially available early period broiler feed (crumble form, Cp 22%, ME 3,030 kcal/kg) was given from beginning of feeding to 4 week age, and a latter period broiler feed (mash form, Cp 18%, ME 3,030 kcal/kg) was given ad libitum from 4 week age to 10 week age. The test period was from Oct. 10, 1981 through Dec. 20, 1981. Addition of test compounds to the above feeds in predetermined concentrations was conducted from 3 week age through the completion of the test.
(§2) Five broilers at 6 week age, five broilers at 8 week age and ten broilers at 10 week age were taken out from each group and slaughtered. Immediately after slaughtering, they were cooled in water for about 2 hr and the body weight of each slaughtered broiler was measured and subsequently they were stored at 2° C. for about 20 hr. Then, in order to measure abdominal fat, mesentary fat was removed and fat adhered to from gizzard to proventriculus was collected and weighed as the weight of abdominal fat. This weight was divided by body weight to obtain abdominal fat deposit per 100 g of body weight. Further, liver fat was also collected and weighed. A liver under freeze storage was cut into slices in a total quantity of 2 to 3 g. The slices were placed in a cylindrical filter paper and weighed. Then, these slices were dried for 3 hr in a hot air drier kept at 90° C. and subsequently extracted for 17 hr with ethyl ether in a Soxhlet fat extractor. After drying the extract for 3 hr at 60° C. and weighing the residue, crude fat content in liver was calculated.

[2] = LD50 mouse (male); conditions: in vivo
Excerpt: Examples of the compounds represented by the general formula [1] according to this invention and their toxicities are shown below.

[3] = tested on: broilers; experiment: Crude fat content in liver of broilers (Test Example 1); type: in vivo, "A A Fuji" broilers (chicken)
Method: as §1, §2

[4] = tested on: laying hens; experiment: Strength of eggshell of laying hens (Test Example 2); type: in vivo
Excerpt: (§3) As test hens, commercially available laying hens of 480 day age were used. The control group fed with a feed not containing any compound of this invention consisted of 100 laying hens, and each test group fed with a feed containing a compound of this invention consisted of 10 laying hens. The test was repeated twice. The test period was 16 weeks from Nov. 17, 1981 to Mar. 8, 1982. The first 4 weeks from the start was a preliminary observation period, during which each group was controlled so as to give the same egg production rate. As the feed, a commercially available feed for laying hens (Cp 16% or above, ME 2,800 kcal/kg or above) was used. From the 5th week, predetermined quantities of test compounds were uniformly added to this feed and the resulting blended feeds were given to test groups. Feeds and water were given ad libitum. Constant lighting was made for 14 hr a day. Egg production rate was daily recorded for each individual hen and egg weight for each test group. Feed intake quantity was obtained by calculating on every other week a difference between quantity fed and quantity left. For examining egg quality, strength of eggshell and thickness of eggshell were measured for all normal eggs laid during a period of the previous day of measurement to 3 P.M. of the measurement day. Strength of eggshell was measured by a FHK eggshell strength tester model FN-597, and thickness of eggshell by a dial thickness gauge.

[5] = tested on: laying hens; experiment: Thickness of eggshell of laying hens (Test Example 2); type: in vivo
Excerpt: as §3

[6] = Growth of body weight of broilers (Test Example 1); type: in vivo, "A A Fuji" broilers (chicken); conditions: for Body weight at week age 0: week age 0 (before addition); for Body weight at week age 3: week age 3 (start of addition)
Method: as §1
(1) Growth of body weight
[…] All broilers were measured and an average body weight was calculated for each group.

CC(C)OC(=O)C(C(=O)OC(C)C)=C1SCCS1 [compound 6]
Abdominal fat deposit ([1]; 6w, 100 ppm in feed): 3.23 g/100 g | Abdominal fat deposit ([1]; 6w, 200 ppm in feed): 3.24 g/100 g | Abdominal fat deposit ([1]; 6w, 400 ppm in feed): 3.08 g/100 g | Abdominal fat deposit ([1]; 6w, 800 ppm in feed): 3.14 g/100 g | Abdominal fat deposit ([1]; 6w, 1,600 ppm in feed): 3.04 g/100 g | Abdominal fat deposit ([1]; 8w, 100 ppm in feed): 3.72 g/100 g | Abdominal fat deposit ([1]; 8w, 200 ppm in feed): 3.64 g/100 g | Abdominal fat deposit ([1]; 8w, 400 ppm in feed): 3.38 g/100 g | Abdominal fat deposit ([1]; 8w, 800 ppm in feed): 3.35 g/100 g | Abdominal fat deposit ([1]; 8w, 1,600 ppm in feed): 3.32 g/100 g | Abdominal fat deposit ([1]; 10w, 100 ppm in feed): 4.18 g/100 g | Abdominal fat deposit ([1]; 10w, 200 ppm in feed): 4.03 g/100 g | Abdominal fat deposit ([1]; 10w, 400 ppm in feed): 3.97 g/100 g | Abdominal fat deposit ([1]; 10w, 800 ppm in feed): 3.85 g/100 g | Abdominal fat deposit ([1]; 10w, 1,600 ppm in feed): 3.78 g/100 g | LD50 [2]: 1350 mg/kg | Crude fat content in liver ([3]; 6w, 100 ppm in feed): 2.23% | Crude fat content in liver ([3]; 6w, 200 ppm in feed): 2.03% | Crude fat content in liver ([3]; 6w, 400 ppm in feed): 2.15% | Crude fat content in liver ([3]; 6w, 800 ppm in feed): 2.14% | Crude fat content in liver ([3]; 6w, 1,600 ppm in feed): 2.08% | Crude fat content in liver ([3]; 8w, 100 ppm in feed): 5.51% | Crude fat content in liver ([3]; 8w, 200 ppm in feed): 4.97% | Crude fat content in liver ([3]; 8w, 400 ppm in feed): 4.53% | Crude fat content in liver ([3]; 8w, 800 ppm in feed): 4.26% | Crude fat content in liver ([3]; 8w, 1,600 ppm in feed): 4.32% | Crude fat content in liver ([3]; 10w, 100 ppm in feed): 5.09% | Crude fat content in liver ([3]; 10w, 200 ppm in feed): 4.33% | Crude fat content in liver ([3]; 10w, 400 ppm in feed): 4.26% | Crude fat content in liver ([3]; 10w, 800 ppm in feed): 4.33% | Crude fat content in liver ([3]; 10w, 1,600 ppm in feed): 4.32% | Eggshell strength ([4]; 509th day, 5 ppm in feed): 2.40 kg | Eggshell strength ([4]; 509th day, 25 ppm in feed): 2.47 kg | Eggshell strength ([4]; 509th day, 125 ppm in feed): 2.39 kg | Eggshell strength ([4]; 509th day, 625 ppm in feed): 2.42 kg | Eggshell strength ([4]; 555th day, 5 ppm in feed): 2.75 kg | Eggshell strength ([4]; 555th day, 25 ppm in feed): 2.88 kg | Eggshell strength ([4]; 555th day, 125 ppm in feed): 2.95 kg | Eggshell strength ([4]; 555th day, 625 ppm in feed): 3.01 kg | Eggshell strength ([4]; 612th day, 5 ppm in feed): 2.74 kg | Eggshell strength ([4]; 612th day, 25 ppm in feed): 2.99 kg | Eggshell strength ([4]; 612th day, 125 ppm in feed): 3.11 kg | Eggshell strength ([4]; 612th day, 625 ppm in feed): 3.07 kg | Eggshell thickness ([5]; 509th day, 5 ppm in feed): 0.328 mm | Eggshell thickness ([5]; 509th day, 25 ppm in feed): 0.345 mm | Eggshell thickness ([5]; 509th day, 125 ppm in feed): 0.343 mm | Eggshell thickness ([5]; 509th day, 625 ppm in feed): 0.325 mm | Eggshell thickness ([5]; 555th day, 5 ppm in feed): 0.341 mm | Eggshell thickness ([5]; 555th day, 25 ppm in feed): 0.345 mm | Eggshell thickness ([5]; 555th day, 125 ppm in feed): 0.340 mm | Eggshell thickness ([5]; 555th day, 625 ppm in feed): 0.346 mm | Eggshell thickness ([5]; 612th day, 5 ppm in feed): 0.344 mm | Eggshell thickness ([5]; 612th day, 25 ppm in feed): 0.341 mm | Eggshell thickness ([5]; 612th day, 125 ppm in feed): 0.342 mm | Eggshell thickness ([5]; 612th day, 625 ppm in feed): 0.348 mm | Body weight at week age 0 ([6]; 100 ppm in feed from 3 week age): 41 g | Body weight at week age 0 ([6]; 200 ppm in feed from 3 week age): 41 g | Body weight at week age 0 ([6]; 400 ppm in feed from 3 week age): 41 g | Body weight at week age 0 ([6]; 800 ppm in feed from 3 week age): 41 g | Body weight at week age 0 ([6]; 1,600 ppm in feed from 3 week age): 41 g | Body weight at week age 3 ([6]; 100 ppm in feed): 628 g | Body weight at week age 3 ([6]; 200 ppm in feed): 623 g | Body weight at week age 3 ([6]; 400 ppm in feed): 624 g | Body weight at week age 3 ([6]; 800 ppm in feed): 622 g | Body weight at week age 3 ([6]; 1,600 ppm in feed): 624 g | Body weight at week age 4 ([6]; 100 ppm in feed): 978 g | Body weight at week age 4 ([6]; 200 ppm in feed): 983 g | Body weight at week age 4 ([6]; 400 ppm in feed): 984 g | Body weight at week age 4 ([6]; 800 ppm in feed): 981 g | Body weight at week age 4 ([6]; 1,600 ppm in feed): 980 g | Body weight at week age 5 ([6]; 100 ppm in feed): 1,326 g | Body weight at week age 5 ([6]; 200 ppm in feed): 1,340 g | Body weight at week age 5 ([6]; 400 ppm in feed): 1,338 g | Body weight at week age 5 ([6]; 800 ppm in feed): 1,332 g | Body weight at week age 5 ([6]; 1,600 ppm in feed): 1,328 g | Body weight at week age 6 ([6]; 100 ppm in feed): 1,672 g | Body weight at week age 6 ([6]; 200 ppm in feed): 1,662 g | Body weight at week age 6 ([6]; 400 ppm in feed): 1,652 g | Body weight at week age 6 ([6]; 800 ppm in feed): 1,657 g | Body weight at week age 6 ([6]; 1,600 ppm in feed): 1,663 g | Body weight at week age 7 ([6]; 100 ppm in feed): 2,602 g | Body weight at week age 7 ([6]; 200 ppm in feed): 2,108 g | Body weight at week age 7 ([6]; 400 ppm in feed): 2,112 g | Body weight at week age 7 ([6]; 800 ppm in feed): 2,063 g | Body weight at week age 7 ([6]; 1,600 ppm in feed): 2,102 g | Body weight at week age 8 ([6]; 100 ppm in feed): 2,492 g | Body weight at week age 8 ([6]; 200 ppm in feed): 2,487 g | Body weight at week age 8 ([6]; 400 ppm in feed): 2,505 g | Body weight at week age 8 ([6]; 800 ppm in feed): 2,501 g | Body weight at week age 8 ([6]; 1,600 ppm in feed): 2,483 g | Body weight at week age 9 ([6]; 100 ppm in feed): 2,880 g | Body weight at week age 9 ([6]; 200 ppm in feed): 2,873 g | Body weight at week age 9 ([6]; 400 ppm in feed): 2,865 g | Body weight at week age 9 ([6]; 800 ppm in feed): 2,858 g | Body weight at week age 9 ([6]; 1,600 ppm in feed): 2,864 g | Body weight at week age 10 ([6]; 100 ppm in feed): 3,107 g | Body weight at week age 10 ([6]; 200 ppm in feed): 3,112 g | Body weight at week age 10 ([6]; 400 ppm in feed): 3,086 g | Body weight at week age 10 ([6]; 800 ppm in feed): 3,024 g | Body weight at week age 10 ([6]; 1,600 ppm in feed): 3,033 g
